From patent US12552771B2, “Carboxylic acid containing azetidinyl compounds for the treatment of neurodegenerative diseases” (Celgene Corporation, priority 2021, dated 2026)

Molecular target: T1, S1P5 receptors (Homo sapiens, UniProt Q9H228)
T1 construct: expressed in transfected cells; host or cells: CHO cells (membranes)
Assay: [35S]-GTPγS binding assay with CHO-S1P5 receptor membranes
Format: biochemical
Settings: membranes of CHO cells expressing recombinant S1P5 receptors; measure of S1P5 agonism
Protocol: CHO cells expressing recombinant S1P5 receptors were cultured in 500 cm^2 culture trays and, once confluent, rinsed and detached with cell-lifting buffer (10 mM HEPES, 154 mM NaCl, 6.85 mM EDTA, pH 7.4). Cells were then pelleted by centrifugation, resuspended, and homogenized in membrane preparation buffer (10 mM HEPES and 10 mM EDTA, pH 7.4) using a Polytron PT 1200E homogenizer (Kinematica, Luzern, Switzerland). Cellular proteins were pelleted by centrifugation at 48,000×g at 4° C. for 30 minutes. The resulting supernatant was discarded, and the pellet was re-suspended again in membrane preparation buffer, homogenized for a second time, and then centrifuged again as described above. The final cellular protein pellet was suspended in ice cold resuspension buffer (10 mM HEPES and 0.1 mM EDTA, pH 7.4), divided into aliquots, and stored at −80° C. until use.
Functional binding assays for [^35]-GTPγS were performed in 96-well non-binding surface plates with a final volume of 200 μL. The test compounds were serially diluted in DMSO and added to assay plates using a Tecan D300E digital printer with a total volume of […]. The control sphingosine-1-phosphate (SiP) was prepared separately by preparing a 400 μM stock solution from a 100 nmol pellet of SiP in 10 mM Na2CO3 with 2% […]. The serial dilution of SiP was done using complete assay buffer (20 mM HEPES, 10 mM MgCl2, 100 mM NaCl, 1 mM EDTA, 0.1% fatty acid free bovine serum albumin (BSA), and 30 μg/mL saponin, pH 7.4) and transferred to wells already containing 0.4 μL DMSO. All the wells were then loaded to a total volume of 40 μL of complete assay buffer, except the non-specific binding (NSB) wells. For NSB wells, 40 μL/well of 50 μM GTPγS (Sigma Aldrich, cat #G8634, St. Louis, MO) was added to wells containing 0.4 μL of DMSO. The assay was started by the addition of 120 μL/well of CHO-S1P receptor membrane solution containing 40 μg/mL of membrane protein, 16.67 μM guanosine diphosphate (GDP; Sigma Aldrich, cat #G7127, St. Louis, MO), and 2.5 mg/mL of WGA PVT SPA beads in complete buffer. Assay plates were then sealed and incubated at room temperature with gentle agitation for 30 minutes. Next, 40 μL/well of 1 nM of [^35]-GTPγS (PerkinElmer, cat #NEG030X250UC, Waltham, MA) in basic assay buffer (20 mM HEPES, 10 mM MgCl2, 100 mM NaCl, and 1 mM EDTA, pH7.4) was added to the assay plates to yield a final concentration of 200 pM and the plates were further incubated for 40 minutes at room temperature with gentle agitation. The assay was terminated by centrifugation of the plates at 1000 rpm for 3 minutes using an Eppendorf 5810R centrifuge (Eppendorf, Hamburg, Germany) and G protein bound radioactivity was quantitated using a MicroBeta2 microplate scintillation counter (PerkinElmer, Waltham, MA). As G protein bound radioactivity directly correlates to receptor activation and coupling to the G protein, this assay is a measure of S1P5 agonism.

T1 sequence (Q9H228 whole entry): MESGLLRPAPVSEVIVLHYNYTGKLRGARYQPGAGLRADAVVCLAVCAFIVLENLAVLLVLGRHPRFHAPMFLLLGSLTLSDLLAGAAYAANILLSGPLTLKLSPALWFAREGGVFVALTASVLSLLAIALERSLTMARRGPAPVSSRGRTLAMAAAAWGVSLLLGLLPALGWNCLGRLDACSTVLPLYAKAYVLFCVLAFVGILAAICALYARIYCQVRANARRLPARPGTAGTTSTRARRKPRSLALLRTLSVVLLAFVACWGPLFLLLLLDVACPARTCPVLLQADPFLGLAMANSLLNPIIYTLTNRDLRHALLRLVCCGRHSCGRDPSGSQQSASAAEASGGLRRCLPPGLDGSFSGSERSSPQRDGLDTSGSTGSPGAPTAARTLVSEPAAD

EC50 [nM] | SMILES
10 to 100 | Cc1cc(C2CN(c3ccccc3C3CC3)C2)cc(C)c1CN1CCC(C(=O)O)CC1 [Compound 70, 1-(4-(1-(2-cyclopropylphenyl)azetidin-3-yl)-2,6-dimethylbenzyl)piperidine-4-carboxylic acid]
≤ 10 | Cc1cc(C2CN(c3c(Cl)cccc3Cl)C2)cc(C)c1CN1CCC(C(=O)O)C(F)C1 (centres unmarked) [Compound 64, 1-(4-(1-(2,6-dichlorophenyl)azetidin-3-yl)-2,6-dimethylbenzyl)-3-fluoro-piperidine-4-carboxylic acid]
10 to 100 | Cc1cc(CN2CCC(C(=O)O)CC2)c(C)nc1C1CN(c2c(Cl)cccc2Cl)C1 [Compound 83, 1-((6-(1-(2,6-dichlorophenyl)azetidin-3-yl)-2,5-dimethyl-pyridin-3-yl)methyl)piperidine-4-carboxylic acid]
≤ 10 | CCc1cc(C2CN(c3c(Cl)cccc3Cl)C2)cc(CC)c1CN1CCC(C(=O)O)CC1 [Compound 52, 1-(4-(1-(2,6-dichlorophenyl)azetidin-3-yl)-2,6-diethylbenzyl)piperidine-4-carboxylic acid]
≤ 10 | Cc1cc(C2CN(c3c(C)cccc3Cl)C2)cc(C)c1CN1CCC(C(=O)O)CC1 [Compound 67, 1-(4-(1-(2-chloro-6-methylphenyl)azetidin-3-yl)-2,6-dimethylbenzyl)-piperidine-4-carboxylic acid]
10 to 100 | Cc1cc(C2CN(c3c(Cl)cccc3Cl)C2)cc(C)c1CN1CCC(C(=O)O)CC1C (centres unmarked) [Compound 63, 1-(4-(1-(2,6-dichlorophenyl)azetidin-3-yl)-2,6-dimethylbenzyl)-2-methyl-piperidine-4-carboxylic acid]
10 to 100 | Cc1cc(C2CN(c3c(C)cccc3C(F)F)C2)cc(C)c1CN1CCC(C(=O)O)CC1 [Compound 72, 1-(4-(1-(2-(difluoromethyl)-6-methylphenyl)azetidin-3-yl)-2,6-dimethyl-benzyl)piperidine-4-carboxylic acid]
10 to 100 | Cc1cc(C2CN(c3c(Cl)cccc3Cl)C2)cc(C)c1CN1CCC(C(=O)O)CC1(C)C (centres unmarked) [Compound 65, 1-(4-(1-(2,6-dichlorophenyl)azetidin-3-yl)-2,6-dimethylbenzyl)-2,2-dimethylpiperidine-4-carboxylic acid]
100 to 1000 | Cc1cc(CN2CCC(C(=O)O)CC2)ncc1C1CN(c2c(Cl)cccc2Cl)C1 [Compound 77, 1-((5-(1-(2,6-dichlorophenyl)azetidin-3-yl)-4-methylpyridin-2-yl)methyl)-piperidine-4-carboxylic acid]
100 to 1000 | Cc1cc(CN2CCC(C(=O)O)CC2)cnc1C1CN(c2c(Cl)cccc2Cl)C1 [Compound 79, 1-((6-(1-(2,6-dichlorophenyl)azetidin-3-yl)-5-methylpyridin-3-yl)methyl)piperidine-4-carboxylic acid]

More lines, now with the values behind:

SMILES | EC50 [nM]
O=C(O)C1CCN(Cc2ccc(N3CC(c4c(Cl)cccc4Cl)C3)cc2F)CC1 [Compound 33, 1-(4-(3-(2,6-dichlorophenyl)azetidin-1-yl)-2-fluorobenzyl)piperidine-4-carboxylic acid] | 10 to 100
Cc1cc(C2CN(c3cccc(F)c3)C2)cc(C)c1CN1CCC(C(=O)O)CC1 [Compound 47, 1-(4-(1-(3-fluorophenyl)azetidin-3-yl)-2,6-dimethylbenzyl)piperidine-4-carboxylic acid] | 100 to 1000
Cc1cc(CN2CCC(C(=O)O)CC2)cc(C)c1C1CN(c2c(Cl)cccc2Cl)C1 [Compound 20, 1-(4-(1-(2,6-dichlorophenyl)azetidin-3-yl)-3,5-dimethylbenzyl)piperidine-4-carboxylic acid] | ≤ 10
O=C(O)C1CCN(C2CCc3cc(N4CC(c5ccccc5F)C4)ccc32)CC1 (single isomer, unassigned) [Compound 10b, 1-(5-(3-(2-fluorophenyl)azetidin-1-yl)-2,3-dihydro-1H-inden-1-yl)piperidine-4-carboxylic acid] | 1000 to 10000
O=C(O)C1CCN(C2CCc3cc(C4CN(c5c(F)cccc5F)C4)ccc32)CC1 (single isomer, unassigned) [Compound 2b, 1-(5-(1-(2,6-difluorophenyl)azetidin-3-yl)-2,3-dihydro-1H-inden-1-yl)-piperidine-4-carboxylic acid] | 1000 to 10000
O=C(O)C1CCN(C2CCc3cc(C4CN(c5c(Cl)cccc5Cl)C4)cc(F)c32)CC1 (racemic) [Compound 6, 1-(5-(1-(2,6-dichlorophenyl)azetidin-3-yl)-7-fluoro-2,3-dihydro-1H-inden-1-yl)piperidine-4-carboxylic acid] | ≤ 10
Cc1cc(C2CN(c3c(Cl)cccc3Cl)C2)cc2c1C(N1CCC(C(=O)O)CC1)CC2 (racemic) [Compound 5, 1-(5-(1-(2,6-dichlorophenyl)azetidin-3-yl)-7-methyl-2,3-dihydro-1H-inden-1-yl)piperidine-4-carboxylic acid] | ≤ 10
Cc1cc(N2CC(F)(c3c(Cl)cccc3Cl)C2)cc(C)c1CN1CCC(C(=O)O)CC1 [Compound 37, 1-(4-(3-(2,6-dichlorophenyl)-3-fluoroazetidin-1-yl)-2,6-dimethylbenzyl)-piperidine-4-carboxylic acid] | 10 to 100
O=C(O)C1CCN(Cc2ccc(N3CC(F)(c4c(Cl)cccc4Cl)C3)cc2)CC1 [Compound 35, 1-(4-(3-(2,6-dichlorophenyl)-3-fluoroazetidin-1-yl)benzyl)piperidine-4-carboxylic acid] | 1000 to 10000
Cc1cc(N2CC(c3c(Cl)cccc3Cl)C2)c(C)cc1CN1CCC(C(=O)O)CC1 [Compound 30, 1-(4-(3-(2,6-dichlorophenyl)azetidin-1-yl)-2,5-dimethylbenzyl)piperidine-4-carboxylic acid] | ≤ 10
O=C(O)C1CCN(Cc2ccc(C3CN(c4c(Cl)cccc4Cl)C3)cc2)CC1 [Compound 11, 1-(4-(1-(2,6-dichlorophenyl)azetidin-3-yl)benzyl)piperidine-4-carboxylic acid] | 10 to 100
Cc1cc(C2CN(c3c(Cl)cccc3Cl)C2)ccc1C(C)N1CCC(C(=O)O)CC1 (single isomer, unassigned) [Compound 16b, 1-(1-(4-(1-(2,6-dichlorophenyl)azetidin-3-yl)-2-methylphenyl)-ethyl)piperidine-4-carboxylic acid] | ≤ 10
O=C(O)C1CN(C2CCc3cc(C4CN(c5cccc(F)c5)C4)ccc32)C1 (single isomer, unassigned) [Compound 8a, 1-(5-(1-(3-fluorophenyl)azetidin-3-yl)-2,3-dihydro-1H-inden-1-yl)azetidine-3-carboxylic acid] | 1000 to 10000
O=C(O)[C@H]1CCN(Cc2ccc(C3CN(c4c(Cl)cccc4Cl)C3)cc2)C1 [Compound 12a, (S)-1-(4-(1-(2,6-dichlorophenyl)azetidin-3-yl)benzyl)pyrrolidine-3-carboxylic acid] | 10 to 100
O=C(O)C1CN(Cc2ccc(C3CN(c4c(Cl)cccc4Cl)C3)cc2)C1 [Compound 13, 1-(4-(1-(2,6-dichlorophenyl)azetidin-3-yl)benzyl)azetidine-3-carboxylic acid] | ≤ 10
O=C(O)C1CCN(Cc2ccc(C3CN(c4c(Cl)cccc4Cl)C3)cc2F)CC1 [Compound 23, 1-(4-(1-(2,6-dichlorophenyl)azetidin-3-yl)-2-fluorobenzyl)piperidine-4-carboxylic acid] | ≤ 10
